Assays:
[1] = target: T1, Protein mono-ADP-ribosyltransferase TIPARP (Homo sapiens, UniProt Q7Z3E1); experiment: Inhibition of PARP7 (unknown origin) by HTRF assay
T1 sequence (Q7Z3E1 whole entry): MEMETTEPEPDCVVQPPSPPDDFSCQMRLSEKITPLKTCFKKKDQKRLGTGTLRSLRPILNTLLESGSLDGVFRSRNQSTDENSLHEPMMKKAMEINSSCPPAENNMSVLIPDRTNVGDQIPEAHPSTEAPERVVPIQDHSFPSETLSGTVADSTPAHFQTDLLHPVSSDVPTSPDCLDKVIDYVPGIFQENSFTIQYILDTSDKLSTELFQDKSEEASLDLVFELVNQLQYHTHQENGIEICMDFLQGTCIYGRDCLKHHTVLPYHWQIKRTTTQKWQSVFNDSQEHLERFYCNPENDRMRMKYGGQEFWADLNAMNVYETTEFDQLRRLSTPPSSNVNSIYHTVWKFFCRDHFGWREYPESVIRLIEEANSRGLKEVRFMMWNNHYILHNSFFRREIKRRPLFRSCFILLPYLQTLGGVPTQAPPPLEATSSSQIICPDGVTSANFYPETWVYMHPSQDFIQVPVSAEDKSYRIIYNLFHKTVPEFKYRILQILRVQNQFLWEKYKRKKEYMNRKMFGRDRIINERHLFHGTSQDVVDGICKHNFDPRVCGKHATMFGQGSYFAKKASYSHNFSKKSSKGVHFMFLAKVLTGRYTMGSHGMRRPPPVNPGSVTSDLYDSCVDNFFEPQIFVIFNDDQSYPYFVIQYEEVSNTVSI

[2] = Oral bioavailability in mouse at 100 mg/kg administered as single dose; assay type: ADME, organism-based; settings: in vivo

With C[C@@H](COCCC(=O)N1CCN2c3ncc(Cl)cc3OCC[C@@H]2C1)Oc1cn[nH]c(=O)c1C(F)(F)F the IC50 [1] was 1.01 nM and the bioavailability [2] was 106%.
In the case of C[C@@H](COCCC(=O)N1CCN2c3ncc(C(F)(F)F)cc3OC[C@@H]2C1)Oc1cn[nH]c(=O)c1C(F)(F)F, the IC50 [1] is reported as 1.24 nM and the bioavailability [2] is reported as 121%.

Source: ChEMBL document CHEMBL5126675, “Recent Discovery of PARP7 Inhibitors as Anticancer Agents” (ACS Med Chem Lett, 2022)
